Experimental data as given in ChEMBL document CHEMBL4346757, “Synthesis and biological evaluation of 7-methoxy-1-(3,4,5-trimethoxyphenyl)-4,5-dihydro-2H-benzo[e]indazoles as new colchicine site inhibitors” (Bioorg Med Chem Lett, 2019).

Assays:
Format in all cases: functional
[1] = system: SF-539; experiment: Growth inhibition of human SF539 cells assessed as cell growth at 0.1 uM after 48 hrs by SRB assay relative to control; settings: SF-539, 48 h, read-out: Activity
[2] = system: K562; experiment: Growth inhibition of human K562 cells assessed as cell growth at 0.01 uM after 48 hrs by SRB assay relative to control; settings: K562, 48 h, read-out: Activity
[3] = system: HCT-15; experiment: Growth inhibition of human HCT15 cells assessed as cell growth at 0.1 uM after 48 hrs by SRB assay relative to control; settings: HCT-15, 48 h, read-out: Activity
[4] = system: CCRF-CEM; experiment: Growth inhibition of human CCRF-CEM cells assessed as cell growth at 1 uM after 48 hrs by SRB assay relative to control; settings: read-out: Activity
[5] = system: OVCAR-3; experiment: Growth inhibition of human OVCAR3 cells assessed as cell growth at 100 uM after 48 hrs by SRB assay relative to control; settings: OVCAR-3, 48 h, read-out: Activity
[6] = system: MDA-MB-468; experiment: Growth inhibition of human MDA-MB-468 cells assessed as cell growth at 0.01 uM after 48 hrs by SRB assay relative to control; settings: MDA-MB-468, 48 h, read-out: Activity
[7] = system: SK-MEL-28; experiment: Growth inhibition of human SK-MEL-28 cells assessed as cell growth at 0.01 uM after 48 hrs by SRB assay relative to control; settings: SK-MEL-28, 48 h, read-out: Activity
[8] = system: HCT-116; experiment: Growth inhibition of human HCT116 cells assessed as cell growth at 0.01 uM after 48 hrs by SRB assay relative to control; settings: HCT-116, 48 h, read-out: Activity
[9] = system: RXF 393; experiment: Cytotoxicity against human RXF393 cells assessed as growth inhibition after 48 hrs by SRB assay; settings: RXF 393, 48 h
[10] = system: NCI-H23; experiment: Growth inhibition of human NCI-H23 cells assessed as cell growth at 10 uM after 48 hrs by SRB assay relative to control; settings: NCI-H23, 48 h, read-out: Activity
[11] = system: NCI/ADR-RES; experiment: Growth inhibition of human NCI-ADR-RES cells assessed as cell growth at 0.1 uM after 48 hrs by SRB assay relative to control; settings: read-out: Activity
[12] = system: SF-295; experiment: Growth inhibition of human SF295 cells assessed as cell growth at 1 uM after 48 hrs by SRB assay relative to control; settings: SF-295, 48 h, read-out: Activity
[13] = system: SN12C; experiment: Cytotoxicity against human SN12C cells assessed as growth inhibition after 48 hrs by SRB assay
[14] = system: EKVX; experiment: Growth inhibition of human EKVX cells assessed as cell growth at 10 uM after 48 hrs by SRB assay relative to control; settings: read-out: Activity
[15] = system: NCI-H522; experiment: Growth inhibition of human NCI-H522 cells assessed as cell growth at 0.01 uM after 48 hrs by SRB assay relative to control; settings: NCI-H522, 48 h, read-out: Activity
[16] = system: NCI-H322M; experiment: Growth inhibition of human NCI-H322M cells assessed as cell growth at 0.01 uM after 48 hrs by SRB assay relative to control; settings: read-out: Activity
[17] = system: ACHN; experiment: Cytotoxicity against human ACHN cells assessed as growth inhibition after 48 hrs by SRB assay
[18] = system: EKVX; experiment: Growth inhibition of human EKVX cells assessed as cell growth at 100 uM after 48 hrs by SRB assay relative to control; settings: read-out: Activity
[19] = system: IGROV-1; experiment: Cytotoxicity against human IGROV1 cells assessed as growth inhibition after 48 hrs by SRB assay; settings: IGROV-1, 48 h
[20] = system: NCI-H460; experiment: Growth inhibition of human NCI-H460 cells assessed as cell growth at 100 uM after 48 hrs by SRB assay relative to control; settings: NCI-H460, 48 h, read-out: Activity
[21] = system: RPMI-8226; experiment: Growth inhibition of human RPMI8226 cells assessed as cell growth at 0.1 uM after 48 hrs by SRB assay relative to control; settings: RPMI-8226, 48 h, read-out: Activity
[22] = system: SF-539; experiment: Growth inhibition of human SF539 cells assessed as cell growth at 0.01 uM after 48 hrs by SRB assay relative to control; settings: SF-539, 48 h, read-out: Activity
[23] = system: SR; experiment: Growth inhibition of human SR cells assessed as cell growth at 0.01 uM after 48 hrs by SRB assay relative to control; settings: read-out: Activity
[24] = system: KM12; experiment: Growth inhibition of human KM12 cells assessed as cell growth at 0.01 uM after 48 hrs by SRB assay relative to control; settings: KM12, 48 h, read-out: Activity
[25] = system: KM12; experiment: Cytotoxicity against human KM12 cells assessed as growth inhibition after 48 hrs by SRB assay; settings: KM12, 48 h
[26] = system: SF-539; experiment: Growth inhibition of human SF539 cells assessed as cell growth at 1 uM after 48 hrs by SRB assay relative to control; settings: SF-539, 48 h, read-out: Activity
[27] = system: U-251; experiment: Growth inhibition of human U251 cells assessed as cell growth at 0.01 uM after 48 hrs by SRB assay relative to control; settings: U-251, 48 h, read-out: Activity
[28] = system: HCC 2998; experiment: Cytotoxicity against human HCC2998 cells assessed as growth inhibition after 48 hrs by SRB assay; settings: HCC 2998, 48 h
[29] = system: LOX IMVI; experiment: Growth inhibition of human LOXIMVI cells assessed as cell growth at 0.01 uM after 48 hrs by SRB assay relative to control; settings: read-out: Activity
[30] = system: U-251; experiment: Cytotoxicity against human U251 cells assessed as growth inhibition after 48 hrs by SRB assay; settings: U-251, 48 h
[31] = read-out: LC50 (the source's name)
[32] = read-out: pLC50 (the source's name) (converted)

`COc1ccc2c(c1)CCc1n[nH]c(-c3cc(OC)c(OC)c(OC)c3)c1-2` gave a growth at 0.1 µM [1] of -6%, a growth at 0.01 µM [2] of 19% and a growth at 0.1 µM [3] of 4%. It also gave a growth at 1 µM [4] of 42%, a growth at 100 µM [5] of -59% and a growth at 0.01 µM [6] of -7%. The growth at 0.01 µM [7] was 53%, the growth at 0.01 µM [8] was 7% and the GI50 ([9]; read-out: GI50) was less than 0.01 µM. The CC50 [9, 31] was 51.3 µM, the GI50 ([9]; read-out: pGI50 (converted)) was less than 0.01 µM and the CC50 [9, 32] was 51.3 µM. The growth at 10 µM [10] was -6%, the growth at 0.1 µM [11] was -21% and the growth at 1 µM [12] was 5%. It also gave a GI50 ([13]; read-out: GI50) of less than 0.01 µM, a CC50 [13, 31] greater than 100 µM and a TGI ([13]; read-out: TGI) of 22 µM. For the same molecule, the GI50 ([13]; read-out: pGI50 (converted)) was less than 0.01 µM, the CC50 [13, 32] was greater than 100 µM and the TGI ([13]; read-out: pTGI (converted)) was 21.9 µM. For the same molecule, the growth at 10 µM [14] was 37%, the growth at 0.01 µM [15] was -16% and the growth at 0.01 µM [16] was 47%. It also gave a GI50 ([17]; read-out: GI50) of less than 0.01 µM, an LC50 ([17]; read-out: LC50) greater than 100 µM and a TGI ([17]; read-out: TGI) of 21.7 µM. For the same molecule, the GI50 ([17]; read-out: pGI50 (converted)) was less than 0.01 µM, the LC50 ([17]; read-out: pLC50 (converted)) was greater than 100 µM and the TGI ([17]; read-out: pTGI (converted)) was 21.9 µM. For the same molecule, the growth at 100 µM [18] was -25%, the GI50 ([19]; read-out: GI50) was less than 0.01 µM and the CC50 [19, 31] was greater than 100 µM. For the same molecule, the TGI ([19]; read-out: TGI) was 23.7 µM, the GI50 ([19]; read-out: pGI50 (converted)) was less than 0.01 µM and the CC50 [19, 32] was greater than 100 µM. It also gave a TGI ([19]; read-out: pTGI (converted)) of 24 µM, a growth at 100 µM [20] of -59% and a growth at 0.1 µM [21] of 51%. It also gave a growth at 0.01 µM [22] of -12%, a growth at 0.01 µM [23] of 23% and a growth at 0.01 µM [24] of 14%. For the same molecule, the GI50 ([25]; read-out: GI50) was less than 0.01 µM, the CC50 [25, 31] was 46.5 µM and the TGI ([25]; read-out: TGI) was 11.8 µM. The GI50 ([25]; read-out: pGI50 (converted)) was less than 0.01 µM, the CC50 [25, 32] was 46.8 µM and the TGI ([25]; read-out: pTGI (converted)) was 11.7 µM. The growth at 1 µM [26] was -12%, the growth at 0.01 µM [27] was 14% and the GI50 ([28]; read-out: GI50) was less than 0.01 µM. It also gave a CC50 [28, 31] of 44.3 µM, a TGI ([28]; read-out: TGI) of 11.4 µM and a GI50 ([28]; read-out: pGI50 (converted)) of less than 0.01 µM. The CC50 [28, 32] was 44.7 µM, the TGI ([28]; read-out: pTGI (converted)) was 11.5 µM and the growth at 0.01 µM [29] was 21%. The GI50 ([30]; read-out: GI50) was less than 0.01 µM, the CC50 [30, 31] was 51.3 µM and the TGI ([30]; read-out: TGI) was 11.5 µM. For the same molecule, the GI50 ([30]; read-out: pGI50 (converted)) was less than 0.01 µM, the CC50 [30, 32] was 51.3 µM and the TGI ([30]; read-out: pTGI (converted)) was 11.5 µM.
